In article PMC6321567 (2018):

Test system: 22HT (DNA, G4) AGGGTTAGGGTTAGGGTTAGGG
Test: CD melting at 293 nm
Settings: 10 mM Tris-HCl pH 7.2, 3 equiv. ligand

A ΔTm (100 mM KCl, 2 µM DNA, SD of Tm ±0.5 °C) of 4.3 °C, a ΔTm (100 mM NaCl, 2 µM DNA, SD of Tm ±0.5 °C) of 4.5 °C and a ΔTm (no added Na+ or K+, ligand-induced G4 folding, Tm without ligand <14 °C) greater than 30.6 °C were found for `CC[n+]1c(/C=C/c2ccc3c(c2)c2ccccc2n3CCCCn2ccnc2)sc2ccccc21` in this work.
